From patent publication US20130096159A1, “INHIBITORS OF HUMAN 12-LIPOXYGENASE” (The United States of America, as represented the Secretary …, priority 2010, published 2013) come the findings set out here.

One assay relates to human platelets. The assay is described as follows: dense granule secretion (ATP release) in washed platelets. Format: cell-based. Particulars: induced by thrombin, PAR1-AP, PAR4-AP, ADP, arachidonic acid, collagen; FIG. 3. The protocol:
(§1) Human platelets were obtained from healthy volunteers from within the Thomas Jefferson University community and the Philadelphia area. These studies were approved by the Thomas Jefferson University Institutional Review Board. Informed consent was obtained from all donors before blood draw. Blood was centrifuged at 200 g for 15 min at room temperature. Platelet-rich plasma was transferred into a conical tube containing a 10% acid citrate dextrose solution (39 mM citric acid, 75 mM sodium citrate, and 135 mM glucose, pH 7.4) and centrifuged at 2000 g for 15 min at room temperature. Platelets were resuspended in Tyrode's buffer (12 mM NaHCO3, 127 mM NaCl, 5 mM KCl, 0.5 mM NaH2PO4, 1 mM MgCl2, 5 mM glucose, and 10 mM HEPES), and the final platelet concentration was adjusted as indicated after counting using a Coulter counter (Beckman Coulter, Fullerton, Calif.). Reported results are the data obtained using platelets from at least three different subjects.
Washed platelets were obtained as described in Example 10. […] After addition of 5 μl of Chrono-lume reagent (Chrono-log Corp., Havertown, Pa.), ATP release was measured in response to stimulation by the agonists thrombin, PAR1-AP, PAR4-AP, ADP, arachidonic acid, and collagen using a Lumi-aggregometer Model 700D (Chrono-log Corp., Havertown, Pa.) at 37° C. with stirring at 1100 rpm. […]

In assay [1] the test system is P-selectin on the surface of human platelets. The assay is described as follows: α-granule secretion, P-selectin expression by flow cytometry. Format: cell-based. Particulars: vs agonists alone (thrombin, PAR1-AP, PAR4-AP, ADP); FIG. 4. As for the experimental part:
as §1
Washed platelets were obtained as described in Example 10. Flow cytometry was used to measure the secretion of α-granules. Specifically, P-selectin expression was used to detect α-granule secretion. […] The fluorescence intensity of 10,000 platelets was immediately measured using a C6 Accuri flow cytometer. […]
For orientation: Flow cytometry measures light scatter and fluorescence of single cells or particles in a stream.

In assay [2] the test system is integrin αIIbβ3 in human platelets. Nature of the assay: activation of integrin αIIbβ3, PAC1 binding by flow cytometry. The class given is cell-based. Particulars: vs agonists alone (thrombin, PAR1-AP, PAR4-AP, ADP); FIG. 5. The protocol: as §1
Washed platelets were obtained as described in Example 10. Flow cytometry was used to measure the activation of integrin αIIbβ3. Specifically, PAC1 (an antibody which only binds to αIIbβ3 when the protein is in its active conformation) binding was used to selectively detect the conformational activation of αIIbβ3. […] The fluorescence intensity of 10,000 platelets was immediately measured using a C6 Accuri flow cytometer. […]

The subject of a further assay is Human islets. Nature of the assay: gene expression in cytokine-stimulated human islets, Taqman real time PCR. Format: cell-based. Particulars: TNF-α. As for the experimental part: Human islets were incubated for 22 hours following stimulation with the inflammatory cytokines IFN-γ, TNF-α, and IL-1-β alone or in the presence of compound 1 or compound 9. Control islets were incubated for 22 hours in the absence of inflammatory cytokines or compounds. Following the incubation, gene expression for 12-LO, 15-LO, 5-LO, IL-12p40, and IFN-γ were determined using Taqman real time PCR.

The target in another assay is T1, recombinant human cPLA2 (Homo sapiens, UniProt P47712).
T1 sequence (P47712 1-749): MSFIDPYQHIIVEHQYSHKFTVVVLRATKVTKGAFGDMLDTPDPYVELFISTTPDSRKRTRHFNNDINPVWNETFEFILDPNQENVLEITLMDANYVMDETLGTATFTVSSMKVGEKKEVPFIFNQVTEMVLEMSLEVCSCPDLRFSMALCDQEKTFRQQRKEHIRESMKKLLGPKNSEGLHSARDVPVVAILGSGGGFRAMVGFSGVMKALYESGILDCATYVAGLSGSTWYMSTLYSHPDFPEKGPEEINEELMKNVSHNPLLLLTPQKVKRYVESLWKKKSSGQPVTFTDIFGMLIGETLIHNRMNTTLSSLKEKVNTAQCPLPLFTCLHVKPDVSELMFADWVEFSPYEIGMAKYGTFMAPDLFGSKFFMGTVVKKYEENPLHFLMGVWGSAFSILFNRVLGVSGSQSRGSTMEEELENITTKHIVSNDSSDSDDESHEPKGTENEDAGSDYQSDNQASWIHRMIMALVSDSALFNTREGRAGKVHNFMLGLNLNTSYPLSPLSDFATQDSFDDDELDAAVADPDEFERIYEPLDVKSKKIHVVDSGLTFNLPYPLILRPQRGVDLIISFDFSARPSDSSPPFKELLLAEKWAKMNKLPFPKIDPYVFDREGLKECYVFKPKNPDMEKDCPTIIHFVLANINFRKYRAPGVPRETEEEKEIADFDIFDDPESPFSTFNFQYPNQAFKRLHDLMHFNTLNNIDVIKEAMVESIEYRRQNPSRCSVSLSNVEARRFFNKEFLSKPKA
Nature of the assay: cPLA2 enzymatic activity assay. Particulars: 50 μM, 5 min of incubation; FIG. 8. The class given is biochemical. As for the experimental part:
A., et al., Biochemistry, 2011, 50: 1731-1738 with the following differences. The inhibitors in solution in DMSO were added at a final concentration of 50 μM right before the recombinant enzyme was added to initiate the reaction. After 5 min of incubation, the products of reaction were analyzed, and the results depicted in FIG. 8.

Where [3] appears, read: relative to control islets, IFN-γ, IL-1-β stimulation, 22 hours.

`CCC(=O)NC(c1cccs1)c1cc([N+](=O)[O-])c2cccnc2c1O` (centres unmarked) [Compound 1, N-((8-hydroxy-5-nitroquinolin-7-yl)(thiophen-2-yl)methyl)propionamide]: in the assay on human platelets, the “ATP secretion (dense granule secretion)” value was “substantially complete blockage of ATP secretion”. Moreover, the “expression of P-selectin on the surface of the platelets” value in assay [1] is listed as “decreased expression of P-selectin”. In addition, in assay [2], the “binding of PAC1 on the surface of the platelets” value was “decreased binding of PAC1”. Besides, in the assay with Human islets (induced by IFN-γ, IL-1-β), the “reduction in IFN-γ expression” value turned out to be 4 fold and the “reduction in IL-12p40 mRNA expression” value is 40 fold. For the same compound, in the assay on Human islets (setting [3]), the “Change in Gene Expression 5-LO” value stood at 1, the “Change in Gene Expression 12-LO” value was 13, the “Change in Gene Expression 15-LO” value came out at 1 and the “Change in Gene Expression IFN-γ” value amounted to 25. Moreover, the “Change in Gene Expression IL-12p40” value with Human islets (setting [3]) is 3. Besides, the “inhibition of cPLA2” value on recombinant human cPLA2 is “did not inhibit cPLA2”.
